# From patent US7732449B2, “Inhibitors of cathepsin S” (IRM LLC, priority 2003, dated 2010)
# pKi: −log10 of the molar value.
# Experiments:
# Format in all cases: biochemical
# Cathepsin S = Cathepsin S (Homo sapiens, UniProt P25774); assay: Cathepsin S inhibition, fluorogenic peptide substrate kinetic assay;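 note: cleavage rate of a coumarin-labelled peptide substrate (50 µM) read as fluorescence increase at Ex 380 nm and Em 450 nm, relative to inhibitor-free control reactions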; details: Cathepsin S inhibition constant; pH5.5, 20 minutes preincubation at room temperature; read-out: Ki Cat. S
# Cathepsin K = biological target: T1, Cathepsin K (Homo sapiens, UniProt P43235); assay: Cathepsin K inhibition, fluorogenic peptide substrate kinetic assay (selectivity); details: ratio of cathepsin K inhibition constant to cathepsin S inhibition constant
# T1 sequence (P43235 115-329): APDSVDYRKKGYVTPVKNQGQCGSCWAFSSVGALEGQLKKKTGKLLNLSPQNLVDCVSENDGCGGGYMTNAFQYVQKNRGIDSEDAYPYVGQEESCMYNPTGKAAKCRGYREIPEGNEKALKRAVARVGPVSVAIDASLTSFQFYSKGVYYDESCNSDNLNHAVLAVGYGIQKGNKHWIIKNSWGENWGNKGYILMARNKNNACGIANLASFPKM
# Cathepsin L = Cathepsin L (Homo sapiens, UniProt P07711); assay: Cathepsin L inhibition, fluorogenic peptide substrate kinetic assay (selectivity); details: ratio of cathepsin L inhibition constant to cathepsin S inhibition constant
# Cathepsin B = Cathepsin B (Homo sapiens, UniProt P07858); assay: Cathepsin B inhibition, fluorogenic peptide substrate kinetic assay (selectivity); details: ratio of cathepsin B inhibition constant to cathepsin S inhibition constant;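 note: value is the cathepsin B inhibition constant divided by the cathepsin S one, each from kinetic fluorescence readings (ex 380 nm, em 450 nm) of a 10 µM coumarin peptide substrate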
# Cathepsin L, sequence (P07711 114-333, species assumed): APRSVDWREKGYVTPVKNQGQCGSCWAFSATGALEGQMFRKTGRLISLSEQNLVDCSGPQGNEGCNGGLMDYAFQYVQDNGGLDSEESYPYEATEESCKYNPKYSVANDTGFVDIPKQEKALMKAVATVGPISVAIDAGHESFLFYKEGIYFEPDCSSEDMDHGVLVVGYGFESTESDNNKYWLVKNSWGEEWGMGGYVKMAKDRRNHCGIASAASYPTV
# Cathepsin S, sequence (P25774 115-331, species assumed): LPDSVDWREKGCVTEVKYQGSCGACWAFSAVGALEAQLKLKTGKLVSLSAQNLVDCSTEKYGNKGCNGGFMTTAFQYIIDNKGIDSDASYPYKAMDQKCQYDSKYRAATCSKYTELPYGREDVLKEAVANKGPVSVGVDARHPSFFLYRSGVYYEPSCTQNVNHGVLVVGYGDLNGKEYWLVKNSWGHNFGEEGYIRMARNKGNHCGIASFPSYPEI
pKi (Cathepsin S),Selectivity for Cat. S over Cat. K (Cathepsin K),Selectivity for Cat. S over Cat. L (Cathepsin L),Selectivity for Cat. S over Cat. B (Cathepsin B),SMILES
5.00 to 6.00,"+ (+, >10)","+ (+, >10)","+ (+, >10)","C[C@@H](CN1c2ccc(F)cc2CC1(C)C)NC(=O)O[C@@H](CC1CCCCC1)C(=O)N1CCSCC1 [Example 96, [2-(5-Fluoro-2,2-dimethyl-2,3-dihydro-indol-1-yl)-1-(S)-methyl-ethyl]-carbamic acid 1-(S)-cyclohexylmethyl-2-oxo-2-thiomorpholin-4-yl-ethyl ester]"
5.00 to 6.00,"+ (+, >10)","+ (+, >10)","+ (+, >10)","CC(C)[C@@H](CN1CC(C)(C)c2cc(F)ccc21)NC(=O)O[C@@H](CS(=O)(=O)Cc1ccccc1)C(=O)N1CCOCC1 [Example 110, [1-(S)-(5-Fluoro-3,3-dimethyl-2,3-dihydro-indol-1-ylmethyl)-2-methyl-propyl]-carbamic acid 2-morpholin-4-yl-2-oxo-1-(R)-phenylmethanesulfonylmethyl-ethyl ester]"
> 7.00,"+ (+, >10)","++ (++, >100)","+++ (+++, >1000)","CC(C)[C@@H](CN1CC(C)(C)c2cc(F)ccc21)NC(=O)O[C@H](C(=O)N1CCOCC1)C1CCCCC1 [Example 111, [1-(S)-(5-Fluoro-3,3-dimethyl-2,3-dihydro-indol-1-ylmethyl)-2-methyl-propyl]-carbamic acid 1-(S)-cyclohexyl-2-morpholin-4-yl-2-oxo-ethyl ester]"
